Structures can show the parent of a compound that is named as a salt.
Assay: Oral pharmacokinetics of nalbuphine HCl solution versus tablets, fed and fasted, across studies
Settings: human, plasma

Work on Oc1ccc2c3c1O[C@H]1[C@@H](O)CC[C@@]4(O)[C@@H](C2)N(CC2CCC2)CC[C@]314 [nalbuphine, 17-(cyclobutylmethyl)-4,5α-epoxymorphinan-3,6α,14-triol, hydrochloride] yielded a Tmax of 0.5 to 1 h and a half-life of 6.87 to 6.99 h.
